Assay results reported in US6346373B1, “Whole cell assay for cathepsin K activity” (Merck Frosst Canada & Co.,, priority 1999, dated 2002).
pIC50: −log10 of the molar value. Entries after “also recorded” stand apart in the source; their conditions may differ. Each block holds one compound with its values, some of them ahead of it.

Columns and labels:
bone resorption = settings: Delaisse et al., 1987; cited from earlier work
purified cathepsin K = target: T1, purified cathepsin K (Homo sapiens, UniProt P43235); test: Pure cathepsin K enzyme assay, hydrolysis of Z-Leu-Arg-Rhodamine in buffer A; assay type: biochemical; settings: 15 min preincubation; for pIC50: pure cathepsin K in buffer A, 5 μM Z-Leu-Arg-Rhodamine, read-out: IC50 Pure Cat K
T1 construct: Standards (10 ng) of human mature cathepsin K (pure Cat k mature)
T1 sequence (P43235 115-329): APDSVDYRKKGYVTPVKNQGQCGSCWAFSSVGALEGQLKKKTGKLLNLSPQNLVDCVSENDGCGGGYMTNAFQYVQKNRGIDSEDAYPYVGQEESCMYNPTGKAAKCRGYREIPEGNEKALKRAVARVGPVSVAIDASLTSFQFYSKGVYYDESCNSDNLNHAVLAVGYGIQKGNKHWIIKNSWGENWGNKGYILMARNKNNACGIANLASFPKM
Protocol: (§1) The rate of substrate hydrolysis is determined in supernatants from extracts of mock and cathepsin K expressing cells (5 μg/ml of total cell protein in buffer A) and a suspension of pure cathepsin K enzyme (3 nM resuspended in buffer A), in the presence of different concentrations of cystatin. Suspensions are preincubated with cystatin for 15 min, then the reaction is initiated with the addition of the substrate (5 μM Z-Leu-Arg-Rhodamine). Each data point is an average of duplicates and is reported as a percentage of inhibition of the control reaction.
(§2) The enzymatic activity of purified cathepsin K (3 nM) and transfectants' supernatants (5 μg/ml of protein) is determined by following the rate of hydrolysis of different peptide substrates conjugated to either AMC or rhodamine.
Assays are performed at room temperature in 200 μl of buffer A [50 mM MES (2-(N-morpholino)ethanesulfonic acid) buffer, pH 5.5, containing 2.5 mM EDTA, 2.5 mM dithiothreitol, 10% DMSO]. Substrate hydrolysis is monitored over a period of 10 min at room temperature in a Cytofluor 4000 fluorescent plate reader (Perseptive Biosystems, MA, USA). Cathepsin K activity measurements are calculated as initial rates over the first 5 min of the reaction.
(§3) Stable mock or hCat K expressing cells are resuspended in HBSS, pH 7.4 supplemented with 15 mM Hepes, 20 μg/ml cystatin and 100 μg/ml SBTI. Pure cathepsin K enzyme is resuspended in buffer A. Enzyme suspensions are preincubated with the designated inhibitor for 15 min before initiating the reaction with 5 μM of the substrate Z-Leu-Arg-Rhodamine.

[1] = target: T2, intracellular cathepsin K in hCat K expressing CHO cells (Homo sapiens, UniProt P43235); test: Whole cell assay for cathepsin K in hCat K expressing CHO cells in presence of cystatin and SBTI; assay type: cell-based; settings: hCat K expressing cells in HBSS pH 7.4, 15 mM Hepes, 20 μg/ml cystatin, 100 μg/ml SBTI; 15 min preincubation, 5 μM Z-Leu-Arg-Rhodamine
T2 construct: expressed in transfected cells
T2 sequence (P43235 115-329): T1 sequence (P43235 115-329)
Protocol: Unless otherwise indicated, cathepsin K activity in intact cells is conducted by challenging the cells with 5 μM of the substrate [Z-Leu-Arg]2-rhodamine in the presence of cystatin and SBTI. Using sterile 96-wells culture plates (Nunc, DK, Denmark), 50,000 mock or Cat K expressing stable cell lines are dispensed into each well and incubated for 24 h. Using the Skanwasher 300 plate washer (Skatron, VA, USA) the cells are washed twice with PBS containing Ca^2+ and Mg^2+. Then, pre-incubated for 15 min at room temperature in 200 μl HBSS (Hank's buffered saline solution), pH 7.4, supplemented with 15 mM Hepes, 20 μg/ml cystatin (Calbiochem, CA, USA) and 100 μg/ml soybean trypsin inhibitor (Sigma, ON, Canada). The pre-incubated cells are then challenged with the addition of 2 μl of [Z-Leu-Arg]2-rhodamine (500 μM stock solution in DMSO to a final 5 μM concentration). Substrate hydrolysis is monitored at room temperature in a Cytofluor 4000 fluorescent plate reader (Perseptive Biosystems, MA, USA).
as §3

[2] = target: T3, intracellular cathepsin K in hCat K cells (Homo sapiens, UniProt P43235); test: Flow cytometry (FACS) analysis of hCat K CHO cells with [Z-Leu-Arg]2-rhodamine; assay type: cell-based; settings: 5 μM Z-Leu-Arg-Rho, cystatin and SBTI present (FIG. 8C)
T3 construct: expressed in transfected cells
T3 sequence (P43235 115-329): T1 sequence (P43235 115-329)
Protocol: FIGS. 8A-8C show the results of the flow cytometry analysis of mock and hCat K expressing CHO cells. Pelleted cells are resuspended in Ca^2+ and Mg^2+ free PBS containing 20 μg/ml cystatin and 100 μg/ml SBTI. After a preincubation of 15 min at […], the substrate, 5 μM Z-Leu-Arg-rhodamine is added. Flow cytometry analysis is performed after a 15 min incubation at 37° C. with the substrate.
Stable mock or hCat K cell lines are trypsinized and resuspended at a density of 1 million cells/ml in Ca^2+ and Mg^2+ free PBS, 20 μg/ml cystatin and 100 μg/ml soybean trypsin inhibitor. Cells are preincubated for 15 min at 37° C. in the presence of vehicle or an inhibitor followed by the addition of the substrate, [Z-Leu-Arg]2-rhodamine (5 μM). Flow cytometry analysis is performed using a FACSCalibur system (Becton Dickinson, CA, USA) equipped with a CellQuest software. Voltage and fluorescence compensation adjustments are performed before each experiment using CaliBRITE beads (Becton Dickinson, CA, USA) and the FACSComp software (Becton Dickinson, CA, USA). A minimum of 10,000 events is collected for each sample. Cells are gated to exclude cell debris and abnormally large or aggregated cells.

[3] = target: human mature cathepsin K (purified enzyme) (human) (UniProt P43235); test: cell-based or functional assay
[4] = target: recombinant human cathepsin K expressed in CHO cells stably transfected with pcDNA3.1/hCat K (human) (UniProt P43235); test: cell-based or functional assay
[5] = target: T4, recombinant cathepsin K expressed by the CHO tranfectants (hCat K extract) (Homo sapiens, UniProt P43235); test: Enzyme assay in hCat K CHO cell extract supernatant, hydrolysis of Z-Leu-Arg-rhodamine; assay type: biochemical; settings: 5 μg/ml total cell protein in buffer A, 15 min preincubation, 5 μM substrate (FIG. 4)
T4 construct: expressed in transfected cells
T4 sequence (P43235 115-329): T1 sequence (P43235 115-329)
Protocol: as §1
Cultured tranfectants are pelleted, resuspended in PBS and sonicated for 3×10 s using a Kontes Ultrasonic Disrupter. […] Protein concentrations are determined on all the supernatants using the Pierce Coomassie Protein Reagent (Pierce, Ill. USA) as described in the manufacturer's instruction.
as §2
Assays are performed at room temperature in 200 μl of buffer A [50 mM MES (2-(N-morpholino)ethanesulfonic acid) buffer, pH 5.5, containing 2.5 mM EDTA, 2.5 mM dithiothreitol, 10% DMSO]. […] Cathepsin K activity measurements are calculated as initial rates over the first 5 min of the reaction. […]

[6] = system: extracellular protease activity of whole hCat K cells; test: Effect of cell-impermeable protease inhibitors on Z-Leu-Arg-Rhodamine hydrolysis by whole hCat K cells (FIG. 5); assay type: cell-based; settings: cystatin 20 μg/ml, EDTA 1 mM, SBTI 100 μg/ml, pepstatin A 0.7 μg/ml; 5 μM Z-Leu-Arg-Rhodamine (FIG. 5)
Protocol: Cells are seeded in sterile 96-wells cell culture plates, grown for 24 h and then washed twice with PBS. Into each well, HBSS pH 7.4 containing 15 mM Hepes is added. The rate of substrate hydrolysis is determined in the presence of the designated protease inhibitors. Cells are preincubated with an inhibitor for 15 min, then the reaction initiated with the addition of the substrate, 5 μM Z-Leu-Arg-Rhodamine. […] The reported enzymatic activities constitute the initial rate of substrate hydrolysis and each data point is an average of duplicates.
To determine the effect of different inhibitors on cathepsin K activity, mock and hCat K whole cells are preincubated with 1 μl of vehicle (control) or an inhibitor for 15 min at room temperature followed by the addition of the substrate. All inhibitors are prepared as stock solutions in DMSO (dimethylsulfoxide) and assays performed with a final DMSO concentration of 1.5%.
Mock and hCat K cells are plated into 96 well tissue culture plates as described in materials and methods and the activity is determined using the Z-Leu-Arg-rhodamine substrate. […]

[7] = Cell permeability tested in CACO-2 cells; assay type: in vitro ADME; settings: unpublished results

- pIC50 (purified cathepsin K): 7.52
- pIC50 [1]: 6.24
Compound: CC(C)C[C@H](NC(=O)C1OC1C(=O)O)C(=O)NCCCCNC(=N)N (stereo partly drawn) [Inhibitor E64, trans-epoxysuccinyl-L-leucylamide-(4-guanidino) butane]
- Inhibition of bone resorption (bone resorption): effective in inhibiting bone resorption

- Effect on increase in fluorescence in hCat K cells [2]: inhibited; also recorded: repressed
Compound: CCOC(=O)[C@H]1O[C@@H]1C(=O)N[C@@H](CC(C)C)C(=O)NCCC(C)C [Inhibitor E64d]

- IC50, inhibition of the rate of hydrolysis of Z-Leu-Arg-rhodamine [3]: 0.2 µg/mL
- IC50, inhibition of the rate of hydrolysis of Z-Leu-Arg-rhodamine [4]: 0.09 µg/mL
Compound: cystatin [listing 1 of 2 here]

- pIC50 (purified cathepsin K): 7.39
- pIC50 [1]: 6.51
Compound: CC(C)CCNC(=O)[C@H](CC(C)C)NC(=O)[C@H]1O[C@@H]1C(=O)O [Inhibitor E64c]

- IC50 on hydrolysis of Z-Leu-Arg-rhodamine by hCat K extract [5]: 0.09 µg/mL
- IC50 on hydrolysis of Z-Leu-Arg-rhodamine by purified cathepsin K (purified cathepsin K; 3 nM pure enzyme in buffer A, 5 μM substrate (FIG. 4)): 0.2 µg/mL
Compound: cystatin [listing 2 of 2 here]
- Effect on protease activity in whole hCat K cells [6]: decrease in protease activity; also recorded: effective inhibitor of extracellular cathepsin K activity
- Cell permeability [7]: does not permeate into cells
